In US20250065246A1, “SOLVENT COMPOSITION FOR NATURAL MATERIAL EXTRACTION” (GS CALTEX CORPORATION, priority 2018, published 2025):

What was measured:
A. niger = test: Evaluation of antibacterial property, minimum inhibitory concentration; format: cell-based
Protocol: (§1) To evaluate an antibacterial property of the solvent compositions for extracting a natural material in examples 2 and 3, and comparative examples 3 and 4, minimum inhibitory concentration (MIC; %) of a total of five microorganisms was measured. A lower minimum inhibitory concentration (%) may denote a more excellent antibacterial property.

P. aeruginosa = test: as above; format: cell-based
Protocol: as §1

S. aureus = test: as above; format: cell-based
Protocol: as §1

E. coli = test: as above; format: cell-based
Protocol: as §1

C. albicans = test: as above; format: cell-based
Protocol: as §1

skin = test: Evaluation of skin irritation, patch test (PCPC Safety Evaluation Guidelines, ICDRG standard); format: in vivo, human; conditions: patch test on 32 people, 30 wt %
Protocol: To evaluate skin irritation caused by solvent compositions for extracting a natural material in example 1 and comparative examples 1, 2 and 3, a patch test was conducted on a total of 32 people. The solvent compositions for extracting a natural material in example 1 and comparative examples 1, 2 and 3 were all at a concentration of 30 wt %, and the patch test was performed under the PCPC Safety Evaluation Guidelines and the ICDRG standard.

CC(O)C(C)O (single isomer, unassigned) [Example 2, levo-2,3-butanediol]
A. niger (MIC %) (A. niger): 12.5% | P. aeruginosa (MIC %) (P. aeruginosa): 10% | S. aureus (MIC %) (S. aureus): 25% | E. coli (MIC %) (E. coli): 15% | C. albicans (MIC %) (C. albicans): 12.5%

CC(O)C(C)O (single isomer, unassigned) [Example 3, meso-2,3-butanediol]
A. niger (MIC %) (A. niger): 12.5% | P. aeruginosa (MIC %) (P. aeruginosa): 6.25% | S. aureus (MIC %) (S. aureus): 25% | E. coli (MIC %) (E. coli): 12.5% | C. albicans (MIC %) (C. albicans): 12.5%

OCCCO [Comparative example 2, 1,3-propanediol]
Cases with skin irritation (skin): 0 | Skin irritation category under ICDRG standard (skin): no skin irritation | Skin irritation index 30 minutes (skin): 0.0 | Skin irritation index 24 hours (skin): 0.0 | Skin irritation index 48 hours (skin): 0.0

CC(O)CCO (centres unmarked) [Comparative example 3, 1,3-butanediol]
A. niger (MIC %) (A. niger): 12.5% | P. aeruginosa (MIC %) (P. aeruginosa): 12.5% | S. aureus (MIC %) (S. aureus): 25% | E. coli (MIC %) (E. coli): 17.5% | C. albicans (MIC %) (C. albicans): 12.5% | Cases with skin irritation (skin): 2 | Skin irritation category under ICDRG standard (skin): minor skin irritation | Skin irritation index 30 minutes (skin): 0.5 | Skin irritation index 24 hours (skin): 0.0 | Skin irritation index 48 hours (skin): 0.0 | Cases with skin irritation (skin; listed as comparative example 3): two

OCCCO [Comparative example 4, 1,3-propanediol]
A. niger (MIC %) (A. niger): 25% | P. aeruginosa (MIC %) (P. aeruginosa): 12.5% | S. aureus (MIC %) (S. aureus): 25% | E. coli (MIC %) (E. coli): 22% | C. albicans (MIC %) (C. albicans): 25%

CC(O)C(C)O (centres unmarked) [Example 1, 2,3-butanediol]
Cases with skin irritation (skin): 0 | Skin irritation category under ICDRG standard (skin): no skin irritation | Skin irritation index 30 minutes (skin): 0.0 | Skin irritation index 24 hours (skin): 0.0 | Skin irritation index 48 hours (skin): 0.0

CC(O)C(C)O (centres unmarked) [compound 1, 2,3-butanediol]
Cases with skin irritation (skin): 0 | Skin irritation category under ICDRG standard (skin): no skin irritation | Skin irritation index 30 minutes (skin): 0.0 | Skin irritation index 24 hours (skin): 0.0 | Skin irritation index 48 hours (skin): 0.0
